Article PMC12586182 (Frontiers in Oncology, 2025)

Columns and labels:
Assay in all cases: Kinase panel profiling at 1 µmol/L (mobility shift assay, Carna)
Type in all cases: biochemical
Conditions in all cases: 1 µmol/L of BTK inhibitor
BLK = target: T1, BLK (Homo sapiens, UniProt P51451)
T1 construct: purchased Carna Biosciences

AurA = target: T2, AurA (Homo sapiens, UniProt O14965)
T2 construct: purchased Carna Biosciences
T2 sequence (O14965 1-403): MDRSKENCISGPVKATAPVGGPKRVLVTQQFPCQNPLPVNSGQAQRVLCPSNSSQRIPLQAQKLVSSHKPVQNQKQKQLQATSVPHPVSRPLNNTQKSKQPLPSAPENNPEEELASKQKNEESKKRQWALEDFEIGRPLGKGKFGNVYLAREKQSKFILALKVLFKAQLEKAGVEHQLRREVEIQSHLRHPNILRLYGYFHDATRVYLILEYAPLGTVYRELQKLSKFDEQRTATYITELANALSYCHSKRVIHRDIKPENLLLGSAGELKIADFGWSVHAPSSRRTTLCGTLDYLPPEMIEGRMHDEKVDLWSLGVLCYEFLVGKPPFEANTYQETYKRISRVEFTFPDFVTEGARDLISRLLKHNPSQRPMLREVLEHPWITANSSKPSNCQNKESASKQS

CHK1 = target: T3, CHK1 (Homo sapiens, UniProt O14757)
T3 construct: purchased Carna Biosciences
T3 sequence (O14757 1-476): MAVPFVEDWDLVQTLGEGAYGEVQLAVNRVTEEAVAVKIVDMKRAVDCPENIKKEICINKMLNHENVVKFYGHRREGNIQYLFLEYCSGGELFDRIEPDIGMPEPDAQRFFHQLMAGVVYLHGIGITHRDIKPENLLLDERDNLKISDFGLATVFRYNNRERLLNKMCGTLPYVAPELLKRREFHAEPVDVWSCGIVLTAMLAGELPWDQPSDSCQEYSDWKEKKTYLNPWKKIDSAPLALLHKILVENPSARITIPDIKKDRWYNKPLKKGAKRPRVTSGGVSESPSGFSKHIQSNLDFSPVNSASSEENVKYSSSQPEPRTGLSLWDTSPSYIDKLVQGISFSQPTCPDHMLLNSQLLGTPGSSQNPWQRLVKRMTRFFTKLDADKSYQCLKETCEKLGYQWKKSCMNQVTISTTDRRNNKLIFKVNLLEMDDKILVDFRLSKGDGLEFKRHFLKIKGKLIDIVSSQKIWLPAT

IKKε = target: T4, IKKε (Homo sapiens, UniProt Q14164)
T4 construct: purchased Carna Biosciences
T4 sequence (Q14164 1-716): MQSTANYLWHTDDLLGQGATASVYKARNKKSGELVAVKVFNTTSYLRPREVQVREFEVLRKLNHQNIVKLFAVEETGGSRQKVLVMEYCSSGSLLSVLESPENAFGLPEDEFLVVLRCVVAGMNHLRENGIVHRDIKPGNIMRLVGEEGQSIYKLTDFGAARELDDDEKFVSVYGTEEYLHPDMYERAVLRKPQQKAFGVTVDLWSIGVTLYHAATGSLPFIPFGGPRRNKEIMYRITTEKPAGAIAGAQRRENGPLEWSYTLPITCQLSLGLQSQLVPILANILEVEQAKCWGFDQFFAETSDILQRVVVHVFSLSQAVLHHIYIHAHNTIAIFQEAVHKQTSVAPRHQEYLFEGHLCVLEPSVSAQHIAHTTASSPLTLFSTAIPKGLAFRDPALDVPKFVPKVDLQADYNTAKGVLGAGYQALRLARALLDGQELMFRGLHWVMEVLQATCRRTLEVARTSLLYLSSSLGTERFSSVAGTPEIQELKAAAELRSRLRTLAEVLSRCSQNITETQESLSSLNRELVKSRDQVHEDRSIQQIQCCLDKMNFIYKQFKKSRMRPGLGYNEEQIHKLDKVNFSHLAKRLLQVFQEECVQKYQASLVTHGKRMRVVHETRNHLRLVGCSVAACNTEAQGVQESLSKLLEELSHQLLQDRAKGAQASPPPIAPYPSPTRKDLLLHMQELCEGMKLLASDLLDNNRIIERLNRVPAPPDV

JNK2 = target: T5, JNK2 (Homo sapiens, UniProt P45984)
T5 construct: purchased Carna Biosciences

MAPKAPK2 = target: T6, MAPKAPK2 (Homo sapiens, UniProt P49137)
T6 construct: purchased Carna Biosciences

PKCε = target: T7, PKCε (Homo sapiens, UniProt Q02156)
T7 construct: purchased Carna Biosciences
T7 sequence (Q02156 1-737): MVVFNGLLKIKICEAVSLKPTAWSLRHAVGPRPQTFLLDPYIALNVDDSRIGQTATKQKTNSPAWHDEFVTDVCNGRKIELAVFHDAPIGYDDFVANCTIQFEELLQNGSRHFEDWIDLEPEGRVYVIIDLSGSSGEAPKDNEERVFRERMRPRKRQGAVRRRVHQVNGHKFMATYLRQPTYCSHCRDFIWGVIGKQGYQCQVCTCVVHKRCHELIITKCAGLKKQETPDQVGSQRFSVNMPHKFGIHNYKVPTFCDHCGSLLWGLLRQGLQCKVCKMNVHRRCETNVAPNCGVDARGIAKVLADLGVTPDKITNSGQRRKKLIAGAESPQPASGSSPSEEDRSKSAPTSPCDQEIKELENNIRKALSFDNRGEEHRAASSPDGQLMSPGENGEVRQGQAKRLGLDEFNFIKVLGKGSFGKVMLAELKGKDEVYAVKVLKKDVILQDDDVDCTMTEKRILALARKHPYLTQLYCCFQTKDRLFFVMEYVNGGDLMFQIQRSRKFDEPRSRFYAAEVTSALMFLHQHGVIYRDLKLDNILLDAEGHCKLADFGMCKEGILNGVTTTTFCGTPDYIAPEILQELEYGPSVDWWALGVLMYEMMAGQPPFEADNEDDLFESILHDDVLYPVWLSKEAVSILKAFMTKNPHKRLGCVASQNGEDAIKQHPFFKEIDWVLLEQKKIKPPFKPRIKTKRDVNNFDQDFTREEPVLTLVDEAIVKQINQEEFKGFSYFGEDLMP

TSSK2 = target: T8, TSSK2 (Homo sapiens, UniProt Q96PF2)
T8 construct: purchased Carna Biosciences
T8 sequence (Q96PF2 1-358): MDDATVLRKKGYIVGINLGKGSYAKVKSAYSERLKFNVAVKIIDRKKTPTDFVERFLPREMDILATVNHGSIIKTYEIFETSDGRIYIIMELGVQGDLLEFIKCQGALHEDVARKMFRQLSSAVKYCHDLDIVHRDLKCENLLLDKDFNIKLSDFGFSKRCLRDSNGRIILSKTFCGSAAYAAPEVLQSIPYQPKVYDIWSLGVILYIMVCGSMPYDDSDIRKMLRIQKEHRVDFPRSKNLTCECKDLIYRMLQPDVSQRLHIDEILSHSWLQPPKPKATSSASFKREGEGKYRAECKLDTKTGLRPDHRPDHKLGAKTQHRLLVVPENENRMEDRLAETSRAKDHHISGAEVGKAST

T5 sequence (P45984 whole entry): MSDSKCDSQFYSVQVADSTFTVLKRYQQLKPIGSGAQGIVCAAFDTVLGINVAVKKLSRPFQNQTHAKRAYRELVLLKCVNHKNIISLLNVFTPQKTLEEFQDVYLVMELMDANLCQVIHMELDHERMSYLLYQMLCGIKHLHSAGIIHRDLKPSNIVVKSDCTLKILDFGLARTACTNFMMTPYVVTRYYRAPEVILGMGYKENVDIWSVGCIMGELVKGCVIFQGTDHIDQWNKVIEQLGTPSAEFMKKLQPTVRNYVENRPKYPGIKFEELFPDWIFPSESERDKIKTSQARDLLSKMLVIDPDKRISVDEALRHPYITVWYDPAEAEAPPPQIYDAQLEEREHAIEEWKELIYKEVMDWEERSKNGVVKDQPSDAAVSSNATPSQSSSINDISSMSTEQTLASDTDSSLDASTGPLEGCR
T6 sequence (P49137 whole entry): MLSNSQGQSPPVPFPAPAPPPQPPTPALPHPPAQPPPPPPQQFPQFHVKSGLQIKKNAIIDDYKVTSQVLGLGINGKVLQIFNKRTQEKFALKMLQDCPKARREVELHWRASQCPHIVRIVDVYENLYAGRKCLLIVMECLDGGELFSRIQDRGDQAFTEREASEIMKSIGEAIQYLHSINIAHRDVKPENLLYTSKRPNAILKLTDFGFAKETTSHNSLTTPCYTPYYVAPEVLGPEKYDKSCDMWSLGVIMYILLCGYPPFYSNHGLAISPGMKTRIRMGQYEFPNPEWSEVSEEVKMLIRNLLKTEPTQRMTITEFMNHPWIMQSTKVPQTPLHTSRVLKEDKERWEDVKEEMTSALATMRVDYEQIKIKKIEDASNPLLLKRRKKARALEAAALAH
T1 sequence (P51451 whole entry): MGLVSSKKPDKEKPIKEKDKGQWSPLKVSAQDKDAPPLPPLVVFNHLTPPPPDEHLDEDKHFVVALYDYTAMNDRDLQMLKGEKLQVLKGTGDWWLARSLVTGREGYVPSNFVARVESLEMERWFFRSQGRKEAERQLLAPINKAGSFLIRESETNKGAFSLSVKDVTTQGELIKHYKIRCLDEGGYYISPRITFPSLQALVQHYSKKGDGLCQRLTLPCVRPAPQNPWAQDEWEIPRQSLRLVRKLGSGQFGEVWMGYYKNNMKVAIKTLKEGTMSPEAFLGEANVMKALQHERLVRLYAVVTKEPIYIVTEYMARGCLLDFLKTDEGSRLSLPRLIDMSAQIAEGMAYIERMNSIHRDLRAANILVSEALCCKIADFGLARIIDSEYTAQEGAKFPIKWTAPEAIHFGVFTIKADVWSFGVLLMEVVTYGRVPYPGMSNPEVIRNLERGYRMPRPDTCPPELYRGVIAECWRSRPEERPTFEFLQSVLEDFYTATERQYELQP

## CC#CC(=O)N1CCC[C@H]1c1nc(-c2ccc(C(=O)Nc3ccccn3)cc2)c2c(N)nccn12 [acalabrutinib]
BLK
  Percentage inhibition of kinase enzyme activity: 8.43%
AurA
  Percentage inhibition of kinase enzyme activity: 2.34%
CHK1
  Percentage inhibition of kinase enzyme activity: -6.98%
IKKε
  Percentage inhibition of kinase enzyme activity: 1.46%
JNK2
  Percentage inhibition of kinase enzyme activity: -1.85%
MAPKAPK2
  Percentage inhibition of kinase enzyme activity: -20.51%
PKCε
  Percentage inhibition of kinase enzyme activity: -8.62%
TSSK2
  Percentage inhibition of kinase enzyme activity: -3.11%

## COc1ccc(F)cc1C(=O)NCc1ccc(-c2nn([C@@H](C)C(F)(F)F)c(N)c2C(N)=O)cc1 [pirtobrutinib]
BLK
  Percentage inhibition of kinase enzyme activity: 30.87%
AurA
  Percentage inhibition of kinase enzyme activity: 27.17%
CHK1
  Percentage inhibition of kinase enzyme activity: 8.67%
IKKε
  Percentage inhibition of kinase enzyme activity: 5.28%
JNK2
  Percentage inhibition of kinase enzyme activity: 7.41%
MAPKAPK2
  Percentage inhibition of kinase enzyme activity: -13.00%
PKCε
  Percentage inhibition of kinase enzyme activity: 18.12%
TSSK2
  Percentage inhibition of kinase enzyme activity: -11.71%

## C=CC(=O)N1CCC[C@@H](n2nc(-c3ccc(Oc4ccccc4)cc3)c3c(N)ncnc32)C1 [ibrutinib]
BLK
  Percentage inhibition of kinase enzyme activity: 101.19%
AurA
  Percentage inhibition of kinase enzyme activity: 29.84%
CHK1
  Percentage inhibition of kinase enzyme activity: 10.13%
IKKε
  Percentage inhibition of kinase enzyme activity: -0.70%
JNK2
  Percentage inhibition of kinase enzyme activity: -2.83%
MAPKAPK2
  Percentage inhibition of kinase enzyme activity: -12.65%
PKCε
  Percentage inhibition of kinase enzyme activity: 7.63%
TSSK2
  Percentage inhibition of kinase enzyme activity: -3.91%

## O=C(c1ccc(Oc2ccccc2)cc1Cl)c1c[nH]c2ncnc(N[C@@H]3CC[C@@H](CO)OC3)c12 [nemtabrutinib]
BLK
  Percentage inhibition of kinase enzyme activity: 102.70%
AurA
  Percentage inhibition of kinase enzyme activity: 77.82%
CHK1
  Percentage inhibition of kinase enzyme activity: 12.30%
IKKε
  Percentage inhibition of kinase enzyme activity: 11.64%
JNK2
  Percentage inhibition of kinase enzyme activity: 4.23%
MAPKAPK2
  Percentage inhibition of kinase enzyme activity: -7.90%
PKCε
  Percentage inhibition of kinase enzyme activity: 12.58%
TSSK2
  Percentage inhibition of kinase enzyme activity: -0.84%

## C=CC(=O)N1CCC([C@@H]2CCNc3c(C(N)=O)c(-c4ccc(Oc5ccccc5)cc4)nn32)CC1 [zanubrutinib]
BLK
  Percentage inhibition of kinase enzyme activity: 98.41%
